# Assay results taken from patent publication US6010721A, “Glycyrrhetinic-acid-like factor” (The Miriam Hospital, priority 1996, dated 2000).
# “Also recorded” adds a separate entry of the source.
# What was measured:
# [1] = biological target: T1, 11β-hydroxysteroid dehydrogenase (11β-OHSD) (Rattus norvegicus, UniProt P16232); experiment: Screening of endogenous substances for inhibition of 11β-OHSD (Example III); type: biochemical; details: endogenous substances screened
# Description: (§1) Various endogenous substances which bear similar structural resemblances to glycyrrhetinic acid (GA) were screened for inhibitory activity against 11β-hydroxysteroid dehydrogenase (11β-OHSD) and 5β-reductase (5β-R).
# 5β-reductase (5β-R) = biological target: T2, 5β-reductase (5β-R) (Rattus norvegicus, UniProt P31210); experiment: Screening of endogenous substances for inhibition of 5β-reductase (Example III); type: biochemical; details: endogenous substances screened
# T2 construct: [3H]-aldosterone reduction with NADPH
# T2 sequence (P31210 1-326): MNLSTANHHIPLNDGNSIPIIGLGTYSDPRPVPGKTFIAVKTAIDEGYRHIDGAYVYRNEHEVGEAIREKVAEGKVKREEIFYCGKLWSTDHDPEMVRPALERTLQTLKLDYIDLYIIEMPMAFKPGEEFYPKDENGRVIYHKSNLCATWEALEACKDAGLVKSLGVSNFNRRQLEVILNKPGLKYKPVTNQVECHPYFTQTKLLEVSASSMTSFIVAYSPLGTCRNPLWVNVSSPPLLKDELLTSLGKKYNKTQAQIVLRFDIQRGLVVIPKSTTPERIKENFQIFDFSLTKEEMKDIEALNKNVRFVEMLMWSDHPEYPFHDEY
# Description: as §1
# adrenalectomized rats = experiment: Mineralocorticoid action conferred upon corticosterone in adrenalectomized rats (Example III); type: in vivo
# Protocol: 3α,5β-THDOC and bile acids were also treated to determine whether, like GA, they could confer mineralocorticoid (MC) actions upon corticosterone.
# [2] = biological target: T1, 11β-hydroxysteroid dehydrogenase (11β-OHSD); details: incubated with enzyme; cited from earlier work
# steroid 5β-reductase = details: incubated with enzyme; cited from earlier work
# [3] = system: adrenalectomized male rats; details: cited from earlier work
# T1 sequence (P16232 whole entry): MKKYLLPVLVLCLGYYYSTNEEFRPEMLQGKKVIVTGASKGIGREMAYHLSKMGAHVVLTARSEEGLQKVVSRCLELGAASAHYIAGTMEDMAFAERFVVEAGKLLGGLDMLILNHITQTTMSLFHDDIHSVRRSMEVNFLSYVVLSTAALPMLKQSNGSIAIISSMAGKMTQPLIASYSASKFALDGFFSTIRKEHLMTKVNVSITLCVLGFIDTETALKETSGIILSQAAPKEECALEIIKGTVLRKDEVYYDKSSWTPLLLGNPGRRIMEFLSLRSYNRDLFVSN
SMILES,inhibition of 11β-OHSD (potency in words) [1],inhibition of 5β-R (potency in words) (5β-reductase (5β-R)),also measured
"C[C@]12CC[C@@H](O)C[C@H]1CC[C@@H]1[C@@H]2CC[C@]2(C)[C@@H](C(=O)CO)CC[C@@H]12 [3α,5β-THDOC, 3α,5β-tetrahydrodeoxycorticosterone]",most potent inhibitor; also recorded: inhibit both 11β-OHSD and 5β-R activity,most potent inhibitor; also recorded: inhibit both 11β-OHSD and 5β-R activity,
"C[C@H](CCC(=O)O)[C@H]1CC[C@H]2[C@@H]3[C@H](O)C[C@@H]4C[C@H](O)CC[C@]4(C)[C@H]3C[C@H](O)[C@]12C [CA, cholic acid]",moderate inhibitor,weak inhibitors,
"C[C@H](CCC(=O)O)[C@H]1CC[C@H]2[C@@H]3[C@H](O)C[C@@H]4C[C@H](O)CC[C@]4(C)[C@H]3CC[C@]12C [CDCA, chenodeoxycholic acid]",most potent inhibitor; also recorded: inhibit both 11β-OHSD and 5β-R activity,most potent inhibitor; also recorded: inhibit both 11β-OHSD and 5β-R activity,"antinatriuresis caused by corticosterone after pretreatment (adrenalectomized rats; adrenalectomized rats pretreated with CDCA, then corticosterone): significant antinatriuresis"
"C[C@H](CCC(=O)O)[C@H]1CC[C@H]2[C@@H]3CC[C@@H]4C[C@H](O)CC[C@]4(C)[C@H]3C[C@H](O)[C@]12C [DCA, deoxycholic acid]",weak inhibitor,moderate inhibitor,
CC1(C)[C@@H](O)CC[C@]2(C)[C@H]3C(=O)C=C4[C@@H]5C[C@@](C)(C(=O)O)CC[C@]5(C)CC[C@@]4(C)[C@]3(C)CC[C@@H]12 [Glycyrrhetinic Acid],,,inhibition of 11β-OHSD [2]: markedly inhibit; inhibition of steroid 5β-reductase (steroid 5β-reductase): markedly inhibit
"C[C@H](CCC(=O)O)[C@H]1CC[C@H]2[C@@H]3CC[C@@H]4C[C@H](O)CC[C@]4(C)[C@H]3CC[C@]12C [LCA, lithocholic acid]",potent inhibitor; also recorded: inhibit both 11β-OHSD and 5β-R activity,weak inhibitors; also recorded: inhibit both 11β-OHSD and 5β-R activity,
"CCC[C@@H]1CC2=CC(=O)CC[C@]2(C)[C@H]2CC[C@@]3(C)[C@@H](CC[C@@]3(O)CCC(=O)O)[C@H]12 [RU28318, reference compound]",,,"effect of antimineralocorticoid on the CDCA/corticosterone antinatriuresis (adrenalectomized rats; adrenalectomized rats, CDCA + corticosterone): blocked"
CC1(C)[C@@H](OC(=O)CCC(=O)O)CC[C@]2(C)[C@H]3C(=O)C=C4[C@@H]5C[C@@](C)(C(=O)O)CC[C@]5(C)CC[C@@]4(C)[C@]3(C)CC[C@@H]12 [carbenoxolone sodium],,,effect on Na^+ retaining properties of aldosterone and deoxycorticosterone [3]: amplified the Na^+ retaining properties; effect on glucocorticoids corticosterone and cortisol [3]: display minearlocorticoid like activity
